Consider 18 molecules from US20040152769A1, “Modified carbamate-containing prodrugs and methods of synthesizing same” (priority 2002, published 2004).

Molecules are shown by their SMILES. Converted amounts (≈) assume the structure as drawn. Like-named read-outs stand apart in the source and are kept apart here.

Series [1] is described as follows: Solubility of Dilantin®-PEG3 conjugate in acetonitrile and deionized water (HPLC). The class given is physicochemical. On the procedure:
5,5-diphenylhydrantoin and Dilantin®-PEG3 conjugate prodrug solutions were made in acetonitrile with concentrations of 1.12 mg/mL and 0.8 mg/mL, respectively.
Solutions of 5,5-diphenylhydrantoin and Dilantin®-PEG3 conjugate were then made in deionized water at concentrations of 0.99 mg/mL and 0.93 mg/mL, respectively. These solutions were mixed well by vortexing. 1 mL aliquots were taken and spun by centrifuge at 5000 rpm for five minutes. The resultant supemant was taken and analyzed by HPLC for solution concentration. The concentration of 5,5-diphenylhydrantoin was 4 μg/mL. The concentration of Dilantin®-PEG3 conjugate was 160 μg/mL.

Series [2] is described as follows: pH 2.0 stability of prodrugs of the native compound (0.06M phosphate buffer, 37° C., 2 hours, RP-HPLC). The conditions noted are these: for pH 2 Stability: pH 2.0 phosphate buffer, 37° C.; for % Area of Pro-drug / % Area NC: pH 2.0, 37° C., 2 hours, RP-HPLC; for % Area NC: native compound formed.
Procedure: The samples were incubated in a water bath at 37° C. for 2 hours. Each sample was then removed from the water bath and vortexed.
Series [3] can be described thus: Oral absorption in rats, parent compound in plasma by LC/MS/MS. The conditions noted are these: rat, p.o., result in words; for Oral Absorption: first part of Table 2.
Procedure: 100 μL of plasma was extracted with 500 μL of acetonitrile, vortexed and centrifuged. The supernatant was removed, evaporated to dryness, and then reconstituted with 100 μL of 30% methanol. The reconstituted samples were then centrifuged to remove particulates. The supernatant was removed and transferred to HPLC vials for detection and quantitation of the parent compound by LC/MS/MS.
Series [4] is described as follows: Rat plasma stability of selected prodrugs (37° C., RP-HPLC). The conditions noted are these: for % comp. 0′ / % comp. 60′ / % comp. 120′ / % comp. 240′ / % comp. 360′ / % comp. 480′: 37° C., peak area; for % comp. 0′: 0 minutes; for % comp. 60′: 60 minutes; for % comp. 120′: 120 minutes; for % comp. 240′: 240 minutes; for % comp. 360′: 360 minutes; for % comp. 480′: 480 minutes. Format: in vitro ADME. As for the experimental part:
Using 1 mg/mL stock solutions of a prodrug described in Example 6.8 above in acetonitrile, 990 μL of rat plasma was spiked with 10 μL of conjugate. The plasma spikes were incubated at 37° C. 100 μL of each sample at each time-point was removed and the reaction was quenched with 500 μL of acetonitrile. Each sample was vortexed and centrifuged immediately and the resultant supernatant was removed, discarding the pellet. The supernatant was concentrated and reconstituted with 100 μL of 30% acetonitrile. Prior to transferring samples to HPLC vials, the samples were centrifuged for 15 minutes at 14000 rpm at 2° C. to remove particulates. 10 μL of 10 μg/mL standard and 75 μL of reconstituted sample were injected for RP-HPLC analysis.
The stability of the prodrugs was measured by analyzing samples at the following time-points: 0, 60, 120, 240, 360, and 480 minutes. Retention time, peak area, and UV spectrum were measured for each sample and standard. […] A Waters 2690 HPLC was used for sample analysis (column: Delta Pak C18 Guard Column, C18, 5 m, 2.1 mm×50 mm; Collected spectrum: 210-380 nm. Extracted chromatogram: 240 nm; Mobile Phase; 0.1% TFA in Water/0.1% TFA in acetonitrile; flow Rate: 0.5 mL/minute).

Series [5] in a line: Stability of Dilantin®-PEG3 conjugate in rat plasma (spike controls, RP-HPLC). Format: in vitro ADME. As for the experimental part:
Also using a stock solution of Dilantin®-PEG3 conjugate in acetonitrile, the following spike controls were prepared in rat plasma: 1 μg/ml, 750 ng/ml, 500 ng/ml and 250 ng/ml. After vortexing, […] of acetonitrile was added. Each sample was centrifuged immediately and the resultant supernatant was removed and the pellet discarded. The supernatant was concentrated and reconstituted with […] of 30% acetonitrile. […] Samples were submitted for RP-HPLC anaylsis. […] Thus, near complete plasma hydrolysis of the conjugate may occur within 1 minute. Studies were repeated a second day to confirm results.

Series [6] can be described thus: Chemical hydrolysis of Dilantin®-conjugate (PEG-3) at a pH of about 2. The class given is physicochemical. The conditions noted are these: 0.06M phosphate buffer pH 2.0, 37° C. As for the experimental part: Aliquots of a stock solution of Dilantin®-PEG3 conjugate in acetonitrile were spiked into 0.06M phosphate buffer, pH 2.0 (2 μl stock solution in 998 μl buffer). The sample was incubated in a water bath at 37° C. At time points one hour apart, a portion of the sample was removed and submitted for immediate analysis by RP-HPLC.

In general, solubility refers to the dissolved amount per volume that the medium holds. In turn, `O=C1NC(=O)C(c2ccccc2)(c2ccccc2)N1` [5,5-diphenylhydrantoin, reference compound] showed a solubility in acetonitrile in series [1] of 100%. Further, the solubility in series [1] (water, thermodynamic from solid) was 4 µg/mL (≈ 15.9 µM).
For the molecule `CCOC(=O)CCOCCOCCOC` [Compound 1], the “pH 2 Stability” value in series [2] is recorded as “None”.
Same read-out and setting: the same measure for `CCOCCOCCOCCC(=O)OCC` [Compound 2]: “None”; for `CCOC(=O)CCOCCOCCOCCOCCOCCOCCOCCOCCOC` [Compound 3]: “None”; for `CCOC(=O)COCCOCCOC` [Compound 4]: “None”.
For `CCOC(=O)OCCOCCOCCOC` [Compound 5], in series [2], the “pH 2 Stability” value is given as “None”.
For the molecule `COCCOCCOCCOC(=O)N(C(=O)NCCCN1CCC(c2cccc(OC)c2)CC1)c1cccc(C2C(C(=O)OC)=C(C)NC(C)=C2C(=O)OC)c1` [Compound 6], the “Oral Absorption” value in series [3] was “Not Detected”. Moreover, in series [2], the “pH 2 Stability” value is listed as greater than 2 h.
On the same counts, the results for `COCCOCCOCCOCCOCCOCCOCCOCCOC(=O)N(C(=O)NCCCN1CCC(c2cccc(OC)c2)CC1)c1cccc(C2C(C(=O)OC)=C(C)NC(C)=C2C(=O)OC)c1` [Compound 8] are “Not Detected” and greater than 2 h.
As to `COC(=O)C1=C(C)NC(C)=C(C(=O)OC)C1c1cccc(N(C(=O)NCCCN2CCC(c3cccc(OC)c3)CC2)C(=O)OC)c1.Cl` [Compound 11], the “pH 2 Stability” value in series [2] is greater than 2 h.
Consider `COCCOCCOCCOC(=O)N(C(=O)NCCCN1CCC(c2cccc(OC)c2)CC1)c1cccc(C2C(C(=O)OC)=C(C)NC(C)=C2C(=O)OC)c1.Cl` [Compound 13], for which, in series [2], the “% Area of Pro-drug” value is listed as 100%, the “% Area NC” value was 0% and the “pH 2 Stability” value is given as greater than 2 h. Also, in series [4] (rat plasma), the “% comp. 0′” value came to 99.0%, the “% comp. 60′” value came out at 98.0%, the “% comp. 120′” value amounted to 98.0% and the “% comp. 240′” value is listed as 97.0%. Moreover, in series [4] (rat plasma), the “% comp. 360′” value was determined as 96.0% and the “% comp. 480′” value is recorded as 95.0%.
For the molecule `CCOC(=O)N(C(=O)NCCCN1CCC(c2cccc(OC)c2)CC1)c1cccc(C2C(C(=O)OC)=C(C)NC(C)=C2C(=O)OC)c1.Cl` [Compound 14], the “pH 2 Stability” value in series [2] is on record as greater than 2 h. For the same molecule, in series [4] (rat plasma), the “% comp. 0′” value stood at 98.0%, the “% comp. 60′” value is reported as 98.0%, the “% comp. 120′” value turned out to be 97.5% and the “% comp. 240′” value stood at 96.5%. In series [4] (rat plasma), the “% comp. 360′” value was 96.0% and the “% comp. 480′” value amounted to 95.0%.
Regarding `COC(=O)C1=C(C)NC(C)=C(C(=O)OC)C1c1cccc(N(C(=O)NCCCN2CCC(c3cccc(OC)c3)CC2)C(=O)OC(CO)CO)c1.Cl` [Compound 16], the “Oral Absorption (Relative AUCs)” value in series [3] (second part of Table 2) is on record as “Minimal”. For the same molecule, in series [4] (rat plasma), the “% comp. 0′” value is 0%, the “% comp. 60′” value came out at 0%, the “% comp. 120′” value is on record as 0% and the “% comp. 240′” value came out at 1%. For the same molecule, in series [4] (rat plasma), the “% comp. 360′” value was found to be 1% and the “% comp. 480′” value stood at 1%. For the same molecule, the “stability in rat plasma” value in series [4] (rat plasma, result in words) was “unstable”. Besides, the “prodrug converted to the native compound” value in series [4] (within 30 seconds of being introduced to rat plasma) was roughly 100%.
For the molecule `COCCOCCOCCOCCOC(=O)N(C(=O)NCCCN1CCC(c2cccc(OC)c2)CC1)c1cccc(C2C(C(=O)OC)=C(C)NC(C)=C2C(=O)OC)c1.Cl` [Compound 17], in series [2], the “% Area of Pro-drug” value was found to be 100%, the “% Area NC” value was 0% and the “pH 2 Stability” value is listed as greater than 2 h. In series [4] (rat plasma), the “% comp. 0′” value is listed as 99.7%, the “% comp. 60′” value was found to be 99.0%, the “% comp. 120′” value is 98.5% and the “% comp. 240′” value amounted to 98.0%. For the same molecule, in series [4] (rat plasma), the “% comp. 360′” value is reported as 97.0% and the “% comp. 480′” value came to 96.0%.
Consider `COCCOCCOCCOCCOCCOCCOCCOCCOC(=O)N(C(=O)NCCCN1CCC(c2cccc(OC)c2)CC1)c1cccc(C2C(C(=O)OC)=C(C)NC(C)=C2C(=O)OC)c1.Cl` [Compound 19], for which, in series [2], the “pH 2 Stability” value is greater than 2 h. For the same molecule, in series [4] (rat plasma), the “% comp. 0′” value is 97.0%, the “% comp. 60′” value is reported as 97.0%, the “% comp. 120′” value was found to be 96.5% and the “% comp. 240′” value stood at 96.0%. In series [4] (rat plasma), the “% comp. 360′” value is recorded as 95.3% and the “% comp. 480′” value amounted to 94.0%.
As for `COCCOCCOC(=O)N(C(=O)NCCCN1CCC(c2cccc(OC)c2)CC1)c1cccc(C2C(C(=O)OC)=C(C)NC(C)=C2C(=O)OC)c1.Cl` [Compound 21], in series [2], the “% Area of Pro-drug” value is reported as 100%, the “% Area NC” value worked out at 0% and the “pH 2 Stability” value is greater than 2 h.
As for `COCCOC(=O)N(C(=O)NCCCN1CCC(c2cccc(OC)c2)CC1)c1cccc(C2C(C(=O)OC)=C(C)NC(C)=C2C(=O)OC)c1.Cl` [Compound 22], in series [2], the “% Area of Pro-drug” value worked out at 100%, the “% Area NC” value is recorded as 0% and the “pH 2 Stability” value is greater than 2 h.
On to `COCCOCCOCCOC(=O)N1C(=O)NC(c2ccccc2)(c2ccccc2)C1=O` [Dilantin®-PEG3 conjugate], for which the “time to near complete plasma hydrolysis of the conjugate” value in series [5] (rat plasma) is no more than 1 min. Further, the “species found in extracted rat plasma samples” value in series [5] (rat plasma spiked at 1 μg/ml, 750, 500 and 250 ng/ml, RP-HPLC) is reported as “only the presence of phenyloin”. Also, in series [1] (acetonitrile, 1.12 mg/mL (5,5-diphenylhydrantoin) and 0.8 mg/mL (conjugate)), the solubility in acetonitrile is on record as 100%. For the same molecule, the “solubility in water compared with native drug” value in series [1] (deionized water) is given as “more soluble in water than the native drug”. Moreover, in series [1] (deionized water, made at 0.99 mg/mL and 0.93 mg/mL, centrifuged, HPLC), the “concentration in supernatant (solubility in water)” value came out at 160 µg/mL. For the same molecule, the figures for the “Dilantin ® -PEG3 (Remaining), %” value in series [6] (time 0 hours), in series [6] (time 2 hours) and in series [6] (time 3 hours) were 100%, 96.79% and 94.99%, respectively.
With `COC(=O)C1=C(C)NC(C)=C(C(=O)OC)C1c1cccc(NC(=O)NCCCN2CCC(c3cccc(OC)c3)CC2)c1` [Native drug, 1,4-Dihydro-[3-[[[[3-[4-(3-methoxyphenyl)-1-piperidinyl]propyl]amino]carbonyl]amino]phenyl]-2,6-dimethyl-3,5-pyridinedicarboxylic acid, dimethyl ester], the “pH 2 Stability” value is recorded as greater than 2 h.
